Laboratory results: PMC4718634, “Murine GPRC6A Mediates Cellular Responses to L-Amino Acids, but Not Osteocalcin Variants” (PLoS ONE, 2016)
Entries after “also recorded” stand apart in the source; their conditions may differ.

Key:
mGPRC6A (mouse GPRC6A) = molecular target: T1, mGPRC6A (mouse GPRC6A) (Mus musculus, UniProt Q8K4Z6); experiment: Cyclic AMP accumulation, FlpIn-TREx-HEK293-mGPRC6A cells; format: cell-based
T1 sequence (Q8K4Z6 21-928): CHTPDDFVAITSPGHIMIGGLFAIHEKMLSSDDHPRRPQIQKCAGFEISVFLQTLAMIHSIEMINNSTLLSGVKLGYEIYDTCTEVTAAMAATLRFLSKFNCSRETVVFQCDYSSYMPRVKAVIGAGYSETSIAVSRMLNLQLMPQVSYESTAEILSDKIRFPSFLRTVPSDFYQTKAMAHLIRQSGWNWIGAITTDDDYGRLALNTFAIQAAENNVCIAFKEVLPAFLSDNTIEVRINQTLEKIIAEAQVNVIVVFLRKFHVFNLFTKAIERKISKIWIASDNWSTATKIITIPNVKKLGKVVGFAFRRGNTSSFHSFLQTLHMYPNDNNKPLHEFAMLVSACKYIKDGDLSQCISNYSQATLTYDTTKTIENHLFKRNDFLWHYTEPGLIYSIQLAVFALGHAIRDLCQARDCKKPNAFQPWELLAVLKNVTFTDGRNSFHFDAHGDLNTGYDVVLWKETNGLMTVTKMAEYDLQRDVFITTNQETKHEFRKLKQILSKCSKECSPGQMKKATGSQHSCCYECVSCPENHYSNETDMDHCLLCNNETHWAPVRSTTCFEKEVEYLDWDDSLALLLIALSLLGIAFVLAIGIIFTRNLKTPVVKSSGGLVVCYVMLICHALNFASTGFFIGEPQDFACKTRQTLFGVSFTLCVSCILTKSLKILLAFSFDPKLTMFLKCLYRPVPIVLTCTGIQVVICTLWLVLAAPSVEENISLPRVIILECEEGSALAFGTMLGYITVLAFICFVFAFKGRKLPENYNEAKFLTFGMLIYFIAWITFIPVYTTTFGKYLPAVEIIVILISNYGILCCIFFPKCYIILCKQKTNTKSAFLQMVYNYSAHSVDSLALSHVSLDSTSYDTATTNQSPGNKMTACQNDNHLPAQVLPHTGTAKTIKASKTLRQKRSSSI
Procedure: pcDNA 5/FRT/TO constructs were isogenically integrated into a FlpIn-TREx-HEK293 cell line (Life Technologies). FlpIn-TREx-HEK293-mGPRC6A and FlpIn-TREx-HEK293-hGPRC6A cells were then selected using 600 μg/ml hygromycin and 5 μg/ml blasticidin and grown in culture medium consisting of Dulbecco’s Modified Eagle Medium (DMEM), supplemented with 10% (v/v) foetal bovine serum (FBS) at 37°C in 5% CO2 and were sub-cultured in a 1:3 ratio every 3–4 days. Cells were cultured overnight in the presence of 1 μg/ml tetracycline to induce GPRC6A expression. […] 48 h after transfection, cells were selected using 3 μg/ml puromycin and grown as above.
HEK293-mGPRC6A cells were seeded at a density of 10^5 cells per well into PDL-coated 96-well plates and incubated overnight in DMEM, supplemented with 10% FBS (v/v) at 37°C in 5% CO2. Cells were then incubated in 90 μl of stimulation buffer (HBSS containing 5 mM HEPES, 0.1% BSA (w/v), 0.5 mM IBMX; pH 7.4) for 30 min at 37°C. Test compounds (10 μl at 10 x final) were added and cells were incubated for an additional 30 min at 37°C. The medium was removed and cells were incubated in 50 μl of ice-cold 100% ethanol. Once evaporated, 100 μl of lysis buffer (5 mM HEPES, 0.1% BSA (w/v), 0.3% Tween-20; pH 7.4) was added to the cells and samples were stored at -20°C until further analysis. Samples were analysed using the Alphascreen® cAMP assay kit (Perkin Elmer) following manufacturer instructions. Briefly, 10 μl of lysates were added to a 384-well Optiplate. After addition of 5 μl of acceptor bead mix, plate was incubated at RT for 30 min followed by addition of 15 μl of donor bead mix. After overnight (16 h) incubation at RT, plates were read using the Envision plate reader.

MIN6 cells = experiment: Insulin release from MIN6 cells; format: cell-based, murine
Procedure, shortened: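 After 72 h culture and 2 h glucose-free deprivation, cells exposed to compound for 2 h at 37°C in Krebs buffer pH 7.4 with 2 mM or 16.7 mM glucose. Secreted insulin measured by ELISA, normalised to vehicle at matching glucose; LogEC50 from three- or four-parameter logistic fit.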

β-TC6 cells = experiment: Insulin release from β-TC6 cells; format: cell-based, murine; conditions: S3 Fig A
Procedure: MIN6 or βTC-6 cells were seeded in 24-well plates at 170,000 cells per well in DMEM (containing 4.5g/L glucose, 10 mM HEPES, 100 U/ml penicillin, 100 μg/ml streptomycin and 15% de-complemented FBS) and incubated at 37°C / 5% CO2 for 72 h. Cells were then washed with 500 μl PBS and incubated in 500 μl deprivation media (DMEM with zero glucose, 10 mM HEPES, 1 mM Na-pyruvate, 100 U/ml penicillin, 100 μg/ml streptomycin, 15% de-complemented FBS) for 2 h at 37°C. Media was aspirated and after washing with 500 μl PBS, cells were treated with 250 μl of Krebs buffer (250 mM NaCl, 5.9 mM KCl, 1.2 mM MgCl2, 1.3 mM CaCl2, 25 mM HEPES, 0.1% BSA (w/v), and 2 mM or 16.7 mM glucose; pH 7.4) in the presence or absence of test compound. After incubation for 2 h at 37°C, the assay was terminated by placing the plates on ice and supernatants were transferred to a 96-well plate in preparation for insulin ELISA (Alpco) following manufacturer’s instructions. The cell monolayer was washed twice with 500 μl of PBS and then lysed using 250 μl of 1 N NaOH prior to protein measurement by the method of Bradford (1976).
Concentration-response data were analysed using a three or four parameter logistic function (Motulsky & Christopoulos, 2004) to generate estimates of agonist potency (LogEC50). Data for all HEK293 assays represent the mean ± SEM of at least three independent experiments (except cell impedance, n = 2). For GLP-1 release, the data represent mean ± SEM of three to five independent experiments (except for OCN, wash; n = 2). For insulin release assays, data represent the mean ± SEM of three independent experiments (except for islet studies; n = 2). Insulin release data were normalised to the response to vehicle in either low or high [glucose]. Statistical analysis for GLP-1 release data were performed by one-way ANOVA, followed by Sidak’s multiple comparisons test (treating wash / no wash datasets separately). Statistical analyses for insulin release data were performed by two-way ANOVA (with [glucose] and drug treatment as group variables), followed by Sidak’s multiple comparisons test. Where only high [glucose] groups were evaluated, statistical analysis was by one-way ANOVA followed by Sidak’s multiple comparisons test.

Compound: OCN: osteoblast-derived peptide, osteocalcin; variant not specified at the place (YLYQWLGAPVPYPDPLEPRREVCELNPDCDELADHIGFQEAYRRFYGPV; UniProt P02818 52-100, looked up)
- cAMP response (summary) (mGPRC6A (mouse GPRC6A); S1 Table): no response
- insulin secretion, OCN (MIN6 cells; mouse OCN 0.03–30 ng/mL, 0.03–100 ng/mL (Fig 6B legend), low and high glucose): failed to induce GSIS
- insulin secretion, OCN (β-TC6 cells; OCN 0.03–100 ng/ml, both glucose concentrations): no effect on insulin release; also recorded: failed to induce GSIS

Compound: NCCC[C@H](N)C(=O)O [L-ornithine]
- stimulation of cAMP accumulation (mGPRC6A (mouse GPRC6A); 30 min, 0.5 mM IBMX, Alphascreen, Fig 3A): no detectable modulation of cAMP accumulation
- inhibition of forskolin-stimulated cAMP (mGPRC6A (mouse GPRC6A); forskolin 3 μM, Fig 3A): neither L-ornithine nor OCN variants inhibited cAMP levels stimulated by forskolin; also recorded: Neither L-ornithine nor OCN variants inhibit
- glucose-sensitive insulin secretion (MIN6 cells; L-ornithine 20 mM, 16.7 mM glucose, P < 0.01 vs Vehicle, 2 h, ELISA, Fig 6B): significantly increased glucose-sensitive insulin secretion; also recorded: could be increased by L-ornithine
- glucose-sensitive insulin secretion, L-ornithine (β-TC6 cells; L-ornithine 20 mM): no significant effect
